Assay results as given in paper PMC5519534, “AM-37 and ST-36 Are Small Molecule Bombesin Receptor Antagonists” (Frontiers in Endocrinology, 2017).
Marks after values point to notes of the source that are not given here. Where a SMILES comes first, the peptide text is derived from it. [ ]: non-standard residue; d: D form. Nle = CCCC[C@H](N)C(=O)O; βAla = NCCC(=O)O

Tests used:
BB2R [1] = molecular target: T1, BB2R (Homo sapiens, UniProt P30550); assay: Inhibition of specific 125I-BA1 binding to BB2R-transfected NCI-H1299 cells; conditions: for Ki: inhibition of specific 125I-BA1 binding, BB2R-transfected NCI-H1299 cells
T1 construct: expressed in transfected cells; host or cells: NCI-H1299
T1 sequence (P30550 whole entry): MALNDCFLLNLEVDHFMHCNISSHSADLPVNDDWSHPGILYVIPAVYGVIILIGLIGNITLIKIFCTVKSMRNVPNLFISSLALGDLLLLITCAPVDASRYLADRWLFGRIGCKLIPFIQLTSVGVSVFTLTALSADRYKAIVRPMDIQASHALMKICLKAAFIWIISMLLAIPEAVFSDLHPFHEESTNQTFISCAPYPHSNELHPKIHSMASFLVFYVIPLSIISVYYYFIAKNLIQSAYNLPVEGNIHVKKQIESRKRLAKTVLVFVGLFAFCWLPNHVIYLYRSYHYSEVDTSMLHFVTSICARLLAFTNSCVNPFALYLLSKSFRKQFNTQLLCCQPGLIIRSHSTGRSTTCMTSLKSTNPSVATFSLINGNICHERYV
From the text: Non-small cell lung cancer cell line NCI-H1299 (ATCC, Manassas, VA, USA) was stably transfected with BB1R, BB2R, and BRS-3. […] The transfected cells, which contained approximately 100,000 receptors/cell, were weekly split using trypsin/EDTA ([13]). […] The cell types were derived from different human biopsy specimens. These studies were approved by the NIDDK biospecimens and biosafety committees.
NSCLC cells were placed in 24 well plates. When confluent, the cells were washed three times with PBS. […] The cells were rinsed three times with binding buffer for 2 min at 4°C. […] The Ki was calculated as described ([15]).

BRS-3 [2] = molecular target: T2, BRS-3 (Homo sapiens, UniProt P32247); assay: Cytosolic Ca2+ (Fura-2AM) in NCI-H1299 cells transfected with BRS-3; format: cell-based; conditions: for Effect on the increase in cytosolic Ca2+ caused by BA1 / Effect on basal cytosolic Ca2+: 30 µM, BRS-3-transfected cells
T2 construct: expressed in transfected cells; host or cells: NCI-H1299
T2 sequence (P32247 1-399): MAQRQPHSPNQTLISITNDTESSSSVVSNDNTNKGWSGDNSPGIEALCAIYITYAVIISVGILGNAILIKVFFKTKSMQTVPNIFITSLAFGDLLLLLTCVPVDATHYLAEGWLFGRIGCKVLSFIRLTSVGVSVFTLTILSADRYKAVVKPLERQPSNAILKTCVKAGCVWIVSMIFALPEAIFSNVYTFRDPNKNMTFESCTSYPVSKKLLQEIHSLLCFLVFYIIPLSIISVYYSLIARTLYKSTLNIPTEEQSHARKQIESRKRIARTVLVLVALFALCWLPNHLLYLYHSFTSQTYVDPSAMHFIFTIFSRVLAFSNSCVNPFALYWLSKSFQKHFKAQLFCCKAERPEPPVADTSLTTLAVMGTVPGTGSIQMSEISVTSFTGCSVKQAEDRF
Experimental: (§1) Non-small cell lung cancer cell line NCI-H1299 (ATCC, Manassas, VA, USA) was stably transfected with BB1R, BB2R, and BRS-3. The transfected cells were grown in RPMI-1640 containing 10% fetal bovine serum (FBS) with 0.3 mg/ml geneticin (Invitrogen, Grand Island, NY, USA). The transfected cells, which contained approximately 100,000 receptors/cell, were weekly split using trypsin/EDTA ([13]). In addition, lung cancer cell lines NCI-H727, H1299, and H1975 were purchased from ATCC and cultured in RPMI-1640, which contained 10% FBS. The cell types were derived from different human biopsy specimens. These studies were approved by the NIDDK biospecimens and biosafety committees.
(§2) The ability of AM-37, ST-36, AM-13, and AM-14 to function as BBR antagonists was investigated. NSCLC cells transfected with BB1R, BB2R, and BRS-3 were harvested and loaded with Fura-2AM (Calbiochem, La Jolla, CA, USA) as described previously ([16]). The excitation ratio was determined at 340 and 380 nm with an emission wavelength of 510 nm.

NSCLC cells = assay: Ionomycin-induced cytosolic Ca2+ in NSCLC cells (specificity); format: cell-based, human; conditions: for Effect on the ability of ION to increase Ca2+: 5 µg/ml ionomycin
Experimental: as §2

EGFR = EGFR tyrosine phosphorylation by western blot, NCI-H1299 cells transfected with BB2R; format: cell-based, human; conditions: for Effect of pretreatment on BA1-induced EGFR tyrosine phosphorylation: 10 µM pretreatment, then 100 nM BA1
Experimental: (§3) The tyrosine phosphorylation of the EGFR and ERK was investigated by western blot. NSCLC cells transfected with BB1R, BB2R, and BRS-3 were placed in 10 cm dishes. When the cells were confluent, they were placed in SIT medium (RPMI-1640 containing 3 × 10^−8 M sodium selenite, 5 µg/ml bovine insulin, and 10 µg/ml apo-transferrin; Sigma-Aldrich, St. Louis, MO, USA) for 3 h. […] Cell extracts were made as described previously ([16]), and 600 µg of protein extract was immunoprecipitated with 4 µg anti-phosphotyrosine antibody (Becton Dickenson, USA). The immunoprecipitates were fractionated using a 4–20% polyacrylamide gel (Novex, San Diego, CA, USA). Proteins were transferred to a nitrocellulose membrane and incubated with 2 µg anti-EGFR or anti-ERK antibody (Cell Signaling Technologies, Danvers, MA, USA). After washing the blot, it was incubated with enhanced chemiluminescence detection reagent (Thermo Scientific) for 5 min and exposed to Biomax XAR film (Carestream, Rochester, NY, USA). The band intensity was determined using a Kodak image station 440 densitometer. Alternatively, 20 µg of protein extract was loaded onto polyacrylamide gels and after transfer to nitrocellulose, the blot was probed with anti-PY^1,068-EGFR, anti-EGFR, anti-PY^204ERK, or anti-ERK (Cell Signaling Technologies, Danvers, MA, USA).

ERK = ERK tyrosine phosphorylation by western blot, NCI-H1299 cells transfected with BB2R; format: cell-based, human; conditions: for Effect of pretreatment on BA1-induced ERK tyrosine phosphorylation: 10 µM pretreatment, then 100 nM BA1
Experimental: as §3

BB2R [3] = molecular target: T1, BB2R; assay: Cytosolic Ca2+ (Fura-2AM) in NCI-H1299 cells transfected with BB2R; format: cell-based; conditions: for Effect on the increase in cytosolic Ca2+ caused by BA1 / Effect on basal cytosolic Ca2+: 30 µM, BB2R-transfected cells
Experimental: as §1, §2

BRS-3 [4] = molecular target: T2, BRS-3; assay: Inhibition of specific 125I-BA1 binding to BRS-3-transfected NCI-H1299 cells; conditions: for Ki: inhibition of specific 125I-BA1 binding, BRS-3-transfected NCI-H1299 cells
Experimental: as §1
(§4) The ability of AM-37, ST-36, AM-13, and AM-14 to inhibit specific ^125I-BA1 binding to NSCLC cells transfected stably with BB1R, BB2R, and BRS-3 was investigated. NSCLC cells were placed in 24 well plates. When confluent, the cells were washed three times with PBS. The cells were incubated with binding buffer (PBS containing 0.25% bovine serum albumin and 0.025% bacitracin, Sigma-Aldrich, St. Louis, MO, USA). Various concentrations of AM-37, ST-36, AM-13, or AM-14 were added to the cells for 10 min, followed by 100,000 cpm of ^125I-BA1 (0.16 nM) and incubated at 37°C for 30 min when equilibrium of binding was reached. The cells were rinsed three times with binding buffer for 2 min at 4°C. The cells that contained bound peptide dissolved in 0.2 N NaOH and counted in a Wallac 1470 γ-counter. The Ki was calculated as described ([15]).

BB1R [5] = molecular target: T3, BB1R (Homo sapiens, UniProt P28336); assay: Inhibition of specific 125I-BA1 binding to BB1R-transfected NCI-H1299 cells
T3 construct: expressed in transfected cells; host or cells: NCI-H1299
T3 sequence (P28336 whole entry): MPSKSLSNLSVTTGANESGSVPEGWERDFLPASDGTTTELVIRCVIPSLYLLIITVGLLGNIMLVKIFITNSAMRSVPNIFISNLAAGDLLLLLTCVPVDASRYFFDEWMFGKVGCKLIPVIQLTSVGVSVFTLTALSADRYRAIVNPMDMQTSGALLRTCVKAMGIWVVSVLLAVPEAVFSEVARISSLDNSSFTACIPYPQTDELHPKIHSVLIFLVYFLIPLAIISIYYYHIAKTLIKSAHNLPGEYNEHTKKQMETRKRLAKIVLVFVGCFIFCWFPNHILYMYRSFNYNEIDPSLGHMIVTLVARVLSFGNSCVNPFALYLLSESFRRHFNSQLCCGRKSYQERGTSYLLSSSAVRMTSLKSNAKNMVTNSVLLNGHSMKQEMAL
Experimental: as §1, §4

BB1R [6] = molecular target: T3, BB1R; assay: Cytosolic Ca2+ (Fura-2AM) in NCI-H1299 cells transfected with BB1R; format: cell-based; conditions: for Effect on the increase in cytosolic Ca2+ caused by BA1 / Effect on basal cytosolic Ca2+: 30 µM, BB1R-transfected cells
Experimental: as §1, §2

NCI-H1299 cells = assay: MTT proliferation assay, NCI-H1299; format: cell-based, human; conditions: for IC50: Homo sapiens, NCI-H1299, 48 h, MTT, 2 days, SIT medium
Experimental: The proliferation of NSCLC cells was investigated using the 3-(4,5-demethylthiazol-2-yl)-[…]-2H-tetrazolium bromide (MTT) assay as described previously ([16]). NCI-H727, H1299, and H1975 cells were placed in SIT medium and varying concentration of AM-37, ST-36, AM-13, or AM-14 added. After 2 days, 0.1% MTT solution (15 µl) was added. After 4 h, DMSO (150 µl) was added and the absorbance at 570 nm was determined.

NTR = molecular target: T4, NTR (Homo sapiens, UniProt P30989); assay: Neurotensin-induced cytosolic Ca2+ in NSCLC cells (specificity); format: cell-based; conditions: 10 nM neurotensin
T4 construct: endogenous in cells; host or cells: NCI-H1299 (transfected with bombesin receptors)
T4 sequence (P30989 whole entry): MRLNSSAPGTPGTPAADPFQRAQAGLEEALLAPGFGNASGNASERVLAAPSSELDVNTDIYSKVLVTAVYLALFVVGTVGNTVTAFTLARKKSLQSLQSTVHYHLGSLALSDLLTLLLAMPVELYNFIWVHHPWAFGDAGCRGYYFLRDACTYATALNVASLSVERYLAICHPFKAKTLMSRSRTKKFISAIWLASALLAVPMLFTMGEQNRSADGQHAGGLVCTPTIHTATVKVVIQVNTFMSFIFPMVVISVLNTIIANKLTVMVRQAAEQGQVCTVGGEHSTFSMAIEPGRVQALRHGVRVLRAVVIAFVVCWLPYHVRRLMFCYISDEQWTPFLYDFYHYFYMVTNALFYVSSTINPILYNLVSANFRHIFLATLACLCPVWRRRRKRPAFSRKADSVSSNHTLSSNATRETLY

[7] = 30 µM small molecule followed by 10 nM BA1
[8] = 100 nM BA1, relative to control

| Structure (SMILES) | Ki (BB2R [1]) [µM] | Increase in cytosolic Ca2+, BRS-3 (BRS-3 [2]; [7]) | Effect on the increase in cytosolic Ca2+ caused by BA1 (BRS-3 [2]; 10 nM BA1) | Effect on basal cytosolic Ca2+ (BRS-3 [2]) | Effect on the ability of ION to increase Ca2+ (NSCLC cells) | Effect of pretreatment on BA1-induced EGFR tyrosine phosphorylation (EGFR) | Effect of pretreatment on BA1-induced ERK tyrosine phosphorylation (ERK) | Increase in cytosolic Ca2+, BB2R (BB2R [3]; [7]) | Ki (BRS-3 [4]) [µM] | Ki (BB1R [5]) [µM] | Increase in cytosolic Ca2+, BB1R (BB1R [6]; [7]) | IC50 (NCI-H1299 cells) [µM] | Effect on the increase in cytosolic Ca2+ caused by BA1 (BB2R [3]; 10 nM BA1) | Effect on basal cytosolic Ca2+ (BB2R [3]) | Effect on the increase in cytosolic Ca2+ caused by BA1 (BB1R [6]; 10 nM BA1) | Effect on basal cytosolic Ca2+ (BB1R [6]) | Effect on the ability of NT to increase cytosolic Ca2+ (NTR) | also measured |
| --- | --- | --- | --- | --- | --- | --- | --- | --- | --- | --- | --- | --- | --- | --- | --- | --- | --- | --- |
| COc1ccc(NC(=O)N[C@H](Cc2c[nH]c3ccccc23)C(=O)NCC2(c3ccc(F)cc3)CCCCC2)cc1 [AM-13, (R)-N-[[1-(4-fluorophenyl)cyclohexyl]methyl]-3-(1H-indol-3-yl)-2-[3-(4-methoxyphenyl)ureido]propanamide] | 27 ± 4 | 2 ± 0.3^a nM | partially blocked | no effect | no effect | BA1 increased strongly EGFR tyrosine phosphorylation | not | 5 ± 0.6^a nM | > 100 | > 100 | 7 ± 0.8^a nM | – | – | – | – | – | – | – |
| COc1ccc(NC(=O)N[C@@H](Cc2c[nH]c3ccccc23)C(=O)NCC2(c3ccc(F)cc3)CCCCC2)cc1 [AM-14] | 45 ± 8 | 3 + 0.4^a nM | – | – | no effect | little effect | little effect | 6 + 0.5^a nM | > 100 | > 100 | – | > 50 | partially blocked | no effect | partially blocked | no effect | – | – |
| COc1ccc(NC(=O)N[C@H](Cc2c[nH]c3ccccc23)C(=O)NCC2(c3cccnc3)CCCCC2)cc1 [AM-37, (R)-3-(1H-indol-3-yl)-2-[3-(4-methoxyphenyl)ureido]-N-[[1-(3-pyridinyl)cyclohexyl]methyl]propanamide] | 1.4 ± 0.2 | 0^a nM | – | – | – | addition of BA1 had little effect | decreased significantly | 0^a nM | 5.5 ± 0.6 | 3.6 ± 0.5 | 1 ± 0.6^a nM | 16 | – | – | blocked | no effect | no effect | Effect on NCI-H1299 proliferation (NCI-H1299 cells; 3 µM): little effect; Effect on NCI-H1299 proliferation (NCI-H1299 cells; 30 µM): strongly inhibited |
| CCCC[C@H](NC(=O)[C@H](Cc1ccccc1)NC(=O)[C@H](Cc1c[nH]cn1)NC(=O)CCNC(=O)[C@@H](NC(=O)[C@H](C)NC(=O)[C@H](Cc1c[nH]c2ccccc12)NC(=O)[C@H](CCC(N)=O)NC(=O)[C@H](N)Cc1ccc(O)cc1)C(C)C)C(N)=O [BA1, (D-Tyr^6, β-Ala^11, Phe^13, Nle^14)BB^6–14, reference compound] (H-[dY]QWAV[βAla]HF[Nle]-NH2; N-terminus and C-terminus assumed) | – | – | – | – | – | – | – | – | – | – | – | – | – | – | – | – | – | Cytosolic Ca2+ reached after BA1 (BRS-3 [2]; 10 nM BA1, from 170 nM, Figure 2G): 194 nM; Increase in cytosolic Ca2+, BRS-3 (BRS-3 [2]; BA1 10 nM alone): 24.4 ± 2.3 nM; EGFR tyrosine phosphorylation (EGFR; [8]): 326%; ERK tyrosine phosphorylation (ERK; [8]): 277%; Cytosolic Ca2+ reached after BA1 (BB2R [3]; 10 nM BA1, from 160 nM, Figure 2D): 186 nM; Increase in cytosolic Ca2+, BB2R (BB2R [3]; BA1 10 nM alone): 26.3 ± 1.7 nM; Cytosolic Ca2+ reached after BA1 (BB1R [6]; 10 nM BA1, from 160 nM, within seconds, Figure 2A): 178 nM; Increase in cytosolic Ca2+, BB1R (BB1R [6]; BA1 10 nM alone): 18.5 ± 1.1 nM |
| COc1ccc(NC(=O)N[C@@H](Cc2c[nH]c3ccccc23)C(=O)NCC2(c3cccnc3)CCCCC2)cc1 [ST-36] | 6.9 ± 0.3 | 0^a nM | blocked | no effect | – | addition of BA1 had little effect | decreased significantly | 0^a nM | 10.8 ± 0.9 | 7.9 ± 0.9 | 0^a nM | 22 | blocked | no effect | – | – | no effect | IC50 (BB2R [1]): 6.9 µM; IC50 (BRS-3 [4]): 10.8 µM |
| C[C@H](CCC(=O)O)C[C@H](C)C[C@H](C)C(=O)/C=C(\O)[C@H](C)C[C@H](C)C/C=C/[C@@H](C)[C@@H](O)[C@@H](C)[C@@H](O)C[C@@H]1CC[C@@](C)([C@H]2CC[C@@](C)([C@@H](C)O)O2)O1 [ionomycin, reference compound] | – | – | – | – | – | – | – | – | – | – | – | – | – | – | – | – | – | Effect on cytosolic Ca2+ (NSCLC cells; 5 µg/ml): strongly increased |
